Reference: US20230233674A1 (priority 2022, published 2023)

Tests used:
[1] = cited from earlier work
[2] = system: Influenza A/California/04/2009 (H1N1); set-up: species or system mice; settings: mouse, in vivo

2′-3″cyclic guanosine monophosphate adenosine monophosphate [cGAMP]
in vivo half-life [1]: ~35 min

CCOC(=O)C1=C[C@@H](OC(CC)CC)[C@H](NC(C)=O)[C@@H](N)C1 [Oseltamivir]
mean peak weight loss [2]: −32%
